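How tested: cells in 96-well plates exposed to compound for 48 hours at five concentrations. TGI is the concentration that stops growth completely.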
Columns and labels:
Assay in all cases: inhibition of tumour cell growth, NCI panel, 48 h
[1] = test system: 786-0 renal
[2] = test system: A498 renal
[3] = test system: CAKI-1 renal
[4] = test system: HCT-116 colon
[5] = test system: HCT-15 colon
[6] = test system: HL-60(TB) leukemia
[7] = test system: HOP-62 NSCLC
[8] = test system: HOP-92 NSCLC
[9] = test system: KM12 colon
[10] = test system: MCF7 breast
[11] = test system: NCI-H226 lung
[12] = test system: OVCAR-4 ovarian
[13] = test system: OVCAR-8 ovarian
[14] = test system: SF-295 CNS
[15] = test system: SK-MEL-2 melanoma
[16] = test system: SK-MEL-28 melanoma
[17] = test system: SN12C renal
[18] = test system: SW-620 colon
[19] = test system: UACC-62 melanoma

Measured: TGI

CCCCCC(=Nc1n[nH]nc1C(N)=O)OCC
> 100 µM: all assays above

CC(C)(C)OC(=O)NC(CS(=O)(=O)O)C(=O)O (stereo not given)
> 100 µM: all assays above

CCOC(=O)C(NC(=O)c1ccccc1)(Nc1ccc(S(=O)(=O)Nc2cc(C)nc(C)n2)cc1)C(F)(F)F (stereo not given)
> 100 µM: all assays above

O=C1OCCC[C@H]2O[C@@H](COCc3ccccc3)C[C@@H]12
> 100 µM: all assays above

NCCNCCCNC(=O)c1cc(-c2ccccc2)nc2ccccc12
42.7 µM: [15]
61.8 µM: [1]
46.3 µM: [19]
33 µM: [16]
55.4 µM: [8]
not listed: [12]
> 100 µM: all other assays above

O=S(=O)(Oc1ccc2ccccc2c1-c1c(OS(=O)(=O)C(F)(F)F)ccc2ccccc12)C(F)(F)F
34.2 µM: [8]
not listed: [17]
> 100 µM: all other assays above

Cc1ccc(S(=O)(=O)N/N=C2\CC(C)OC3=C2CCCCCC3)cc1 (stereo not given)
36.4 µM: [18]
37.4 µM: [9]
44.6 µM: [3]
30.6 µM: [19]
45.2 µM: [13]
35.1 µM: [7]
30.4 µM: [4]
36.7 µM: [8]
34.4 µM: [17]
38.2 µM: [10]
32.3 µM: [1]
39 µM: [11]
29.7 µM: [2]
35.9 µM: [14]
35.6 µM: [12]
39.3 µM: [16]
54.6 µM: [6]

c1ccc2c3nnc(c2c1)SCCCSc1nnc(c2ccccc12)SCCCS3
88.8 µM: [19]
54.3 µM: [12]
94.3 µM: [8]
56.6 µM: [11]
52.8 µM: [7]
not listed: [3]
> 100 µM: all other assays above

COc1cc2c(cc1OC)C(=O)/C(=C/c1cc(Cl)cc(Cl)c1)C2
99.6 µM: [8]
> 95 µM: [15]
> 95.8 µM: [19]
> 21.4 µM: [9]
98.1 µM: [12]
> 89.7 µM: [1]
not listed: [14]
> 100 µM: all other assays above

O=C(NNC(=O)c1ccccc1O)c1ccco1
not listed: [8]
> 100 µM: all other assays above

COC(=O)N/N=C(\c1ccccc1)c1ccc(OC)cc1
not listed: [7] | [8] | [14]
> 100 µM: all other assays above

COc1ccc2c(c1)CCc1c-2n(CCN2CCOCC2)c2ccc(OC)cc12
not listed: [6]
> 100 µM: all other assays above

CCOC(=O)CC(=O)CSc1c(-c2ccccc2)c(=O)n(-c2ccccc2)c(=S)n1-c1ccccc1
not listed: [15]
> 100 µM: all other assays above

Reference: PubChem BioAssay (NCI)
